# Experimental data reported in BindingDB's records for patent US20230159469 (Txinno Bioscience, 2023).
# Target: T1, Ectonucleotide pyrophosphatase/phosphodiesterase family member 1 (Homo sapiens, UniProt P22413)
# T1 sequence (P22413 whole entry): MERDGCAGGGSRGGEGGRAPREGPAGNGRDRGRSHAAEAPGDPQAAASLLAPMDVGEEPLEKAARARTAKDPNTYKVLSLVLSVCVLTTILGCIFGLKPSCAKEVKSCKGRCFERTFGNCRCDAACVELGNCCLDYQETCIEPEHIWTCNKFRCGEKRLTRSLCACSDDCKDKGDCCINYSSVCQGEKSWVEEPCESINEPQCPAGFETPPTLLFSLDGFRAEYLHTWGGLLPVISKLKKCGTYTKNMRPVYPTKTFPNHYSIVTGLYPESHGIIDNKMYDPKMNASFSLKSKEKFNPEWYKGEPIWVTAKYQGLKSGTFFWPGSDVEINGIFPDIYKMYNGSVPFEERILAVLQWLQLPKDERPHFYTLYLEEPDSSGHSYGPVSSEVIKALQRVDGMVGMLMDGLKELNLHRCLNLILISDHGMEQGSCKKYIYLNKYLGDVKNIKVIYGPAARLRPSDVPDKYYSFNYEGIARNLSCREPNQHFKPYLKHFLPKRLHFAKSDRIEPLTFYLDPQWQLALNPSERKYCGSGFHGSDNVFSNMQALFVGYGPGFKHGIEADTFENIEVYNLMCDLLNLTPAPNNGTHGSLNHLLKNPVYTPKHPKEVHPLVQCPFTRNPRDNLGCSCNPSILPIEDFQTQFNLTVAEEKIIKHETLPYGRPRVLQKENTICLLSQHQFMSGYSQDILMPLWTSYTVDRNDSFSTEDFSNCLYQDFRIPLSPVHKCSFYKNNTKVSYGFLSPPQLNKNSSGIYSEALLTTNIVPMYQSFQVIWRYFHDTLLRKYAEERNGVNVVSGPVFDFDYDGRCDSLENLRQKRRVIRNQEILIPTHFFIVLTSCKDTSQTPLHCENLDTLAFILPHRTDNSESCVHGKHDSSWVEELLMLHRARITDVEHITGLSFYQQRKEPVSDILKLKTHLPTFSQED
# Test: ENPP1 Enzyme Assay with eGAMP Substrate
# Method: ENPP1 hydrolyzes nucleotides or nucleotide derivatives to produce nucleoside -5′-monophosphate and pyrophosphate. in addition, ENPP1 hydrolyzes 2′,3′-cGAMP to produce 5′-adenosine monophosphate (AMP) and 5′-guanosine monophosphate (GMP). AMP produced from the reaction is measured using the AMP-Glo kit (Promega). The AMP-Glo kit contains two reagents. The first reagent terminates the AMP-producing enzymatic reaction, removes ATP and converts the produced AMP into ADP. The second reagent converts ADP to ATP which is used to generate luminescence in the luciferase reaction. […] CaCl2, 1 μM ZnCl2, 5% glycerol and 1% DMSO. […] The reaction was initiated by addition of cGAMP (at a final concentration of 5 μM) and reacted at 37 C. for 90 minutes. At the end of the reaction, 10 μl of the AMP-Glo first reagent was added to stop the reaction and the result was stored at room temperature for […]. After storage, 20 μl of an AMP detection solution (a mixture of AMP-Glo II reagent and Kinase-Gio at a ratio of 1:100) was added and stored at room. temperature for 1 hour. Luminescence signals were measured using a Victor plate reader (Perkin Elmer). The maximal activity control (containing enzymes and substrates only in the presence of 1% DMSO; MAX) and the minimal activity control (containing substrates and 1% DMSO; MIN) were evaluated simultaneously. In each experiment, serially diluted reference ENPP1 inhibitors were tested together. IC50, indicating % residual activity versus compound concentration was determined by fitting inhibition curves using the 3-parameter analysis of GraphPad Prism software. Serially diluted samples of one compound were tested two or more times and an average IC50 of each compound was calculated.
row,IC50,Structure (SMILES)
1,≥ 1000 nM,"COc1cc2c(-c3ccc(CNS(=N)(=O)O)cc3)nn(C)c(=O)c2cc1OC [US20230159469, Example 108]"
2,< 1000 nM,"NS(=O)(=O)Nc1cccc(-c2n[nH]c(=O)c3ccccc23)c1 [US20230159469, Example 87]"
3,< 1000 nM,"N=S(=O)(O)NCc1ccc(-c2n[nH]c(=O)c3ccccc23)cc1 [US20230159469, Example 96]"
